Results from paper PMC11676762, “Control of Postharvest Green Mold in Citrus by the Antimicrobial Peptide BP15 and Its Lipopeptides” (Journal of Fungi, 2024).
Values after ≈ are worked out from the molar mass of the structure shown. Values joined by “and” are separate entries in the source; they are usually repeats but may differ in a detail not shown here. Identical values can stand only once. Like-named read-outs stand apart in the source and are kept apart here. Marks after values point to notes of the source that are not given here.

Key:
sheep red blood cells = details: test range, significantly lower than commercial prochloraz (p < 0.05), results not yet published
P. digitatum [1] = details: for MFC: 50 μL from mycelium-free well plated on PDA, no pathogen growth; for MFC / MIC: 25 °C; for MIC: lowest peptide concentration completely inhibiting growth for 48 h, spores 1 × 10^4 CFU/mL, 5% PDB, triplicate
Method: The experiment was adapted from the method of Jia et al.. A 180 μL spore suspension (1 × 10^4 CFU/mL), containing 5% potato dextrose broth (PDB) by volume, was mixed with 20 μL of peptide solution in a sterile 96-well microplate and thoroughly mixed. The final peptide concentrations were 0.78, 1.56, 3.12, 6.25, 12.5, 25, 50, and 100 μM, with sterile water as the control. The mixtures were cultured in an incubator at 25 °C for 48 h, and the light absorption at OD600nm was measured using an 800TS full-wavelength microplate reader (Bio Tek Instruments, Inc., Winooski, VT, USA). The minimum inhibitory concentration (MIC) was defined as the lowest peptide concentration completely inhibiting fungus growth for 48 h. Then, a 50 μL sample from the mycelium-free well was plated on PDA and left to culture at 25 °C for 48 h. The minimum fungicidal concentration (MFC) was the peptide concentration at which there was no pathogen growth after 48 h.

P. digitatum genomic DNA = test: DNA binding gel retardation assay; design: species or system Penicillium digitatum; details: peptide:DNA 1:1 (v/v), room temperature 30 min, 1% agarose gel
Method: In accordance with Miao et al. with slight adjustments, the gel retardation effect was analyzed. The P. digitatum DNA was extracted according to the operation steps of the TIANGEN plant genome DNA extraction kit. The agarose gel electrophoresis utilized a 1% agarose concentration. […] Electrophoresis was run at 110 V for 25 min, followed by the removal of the rubber plate and placement in the Tanon-2500B (Tanon Science and Technology Co., Ltd., Shanghai, China) for visualization.

P. digitatum mycelia [2] = test: Sytox Green fluorescence microscopy (membrane permeability); format: cell-based, Penicillium digitatum; details: 2 h, Sytox Green 0.2 μM
Method: The experiment protocol was adapted from Li et al.. A spore suspension (10^5 CFU/mL) of 90 μL was prepared with 5% PDB and incubated for 24 h at 25 °C. Subsequently, the peptide solution was added to final concentrations of the MIC, the MFC, and 100 μM, and the mixtures were left for 2 h, with sterile water as the control. After incubation, Sytox Green (Molecular Probes; KeyGen Biotech Co., Nanjing, China) was added at 4 μM and thte final concentration was 0.2 μM and was incubated for 5 min in the dark. The treated samples were washed with sterile water, resuspended in 20% glycerol solution, and prepared and observed under a DM3000 fluorescence microscope (Leica, Weztlar, Germany).

P. digitatum mycelia [3] = test: Mycelial survival assay (MTT); format: cell-based, Penicillium digitatum; details: 100 μM peptide, 3 h at 25 °C, then MTT 16 h; mean of triplicate
Method: The mycelial survival rate was determined according to by Weerden et al.. A spore suspension (5 × 10^4 CFU/mL) was prepared with 5% PDB and incubated for 24 h at 25 °C. […] The mixtures were cultured at 25 °C for 3 h before the addition of 10 μL of 3-(4,5-dimethylthiazol-2-yl)-2,5-diphenyltetrazolium bromide (MTT; 5 mg/mL; MACKLIN). The plates were then incubated in a dark environment for 16 h, followed by the addition of DMSO (100 μL).

P. digitatum [4] = test: Fruit decay test, green mold on mandarins; format: in vivo, Penicillium digitatum; details: mean ± SD
Text: This experiment followed the method of Zhou et al. with some adjustments. The effects of three peptides on the control of green mold in citrus in vivo were studied by measuring the incidence rate and spot diameters on the citrus fruit. Mandarins were purchased from a local supermarket and selected for uniform size, ripeness, and a lack of mechanical damage. The mandarins were soaked in 75% alcohol for 30 s and then in 1% NaClO for 30 s, followed by rinsing with sterile water and drying with sterile paper to remove excess surface water. A sterile needle was used to drill holes near the equator (about 3 mm deep), and each mandarin was inoculated with 10 µL of 100 μM concentrations of three peptide solutions and 1 × 10^5 CFU/mL P. digitatum suspension (v/v 1:1), compared with a mixture of equal parts sterile water and P. digitatum suspension. The mandarins were placed in a […] container with sterile wet paper towels in order to preserve their freshness. A humid environment was maintained in the container, and the fruit was stored at room temperature. The incidence rate and spot diameter of the mandarins were measured in accordance with the method of Zhang et al.. Each treatment group contained eight fruits, and each treatment was repeated three times.

P. digitatum [5] = details: against P. digitatum; cited from earlier work
Text: Conidia generated by P. digitatum are disseminated to the surface of fruits via wind, rain, soil dust, and other media. Upon landing on the surface or wound of the fruit, these conidia promptly germinate, leading to fruit decay. […] In the present s ...

[6] = 5 d, 100 μM peptide + spores (1:1), three replicates
[7] = 6 d, 100 μM peptide + spores (1:1), three replicates
[8] = 7 d, 100 μM peptide + spores (1:1), three replicates
[9] = 8 d, 100 μM peptide + spores (1:1), three replicates
[10] = 9 d, 100 μM peptide + spores (1:1), three replicates
[11] = 10 d, 100 μM peptide + spores (1:1), three replicates

Molecule	hemolytic activity (sheep red blood cells)	MFC (P. digitatum [1]; 48 h)	MIC (P. digitatum [1]; OD600nm)	peptide concentration at which DNA bands were no longer visible (P. digitatum genomic DNA)	SG fluorescence in mycelia (P. digitatum mycelia [2]; peptide at 100 μM)	SG fluorescence in mycelia (P. digitatum mycelia [2]; peptide at 2 MIC)	SG fluorescence in mycelia (P. digitatum mycelia [2]; peptide at MIC)	mycelial survival rate (P. digitatum mycelia [3])	Spot Diameter (P. digitatum [4]; [6])	Incidence Rate (P. digitatum [4]; [7])	Spot Diameter (P. digitatum [4]; [7])	Incidence Rate (P. digitatum [4]; [8])	Spot Diameter (P. digitatum [4]; [8])	Incidence Rate (P. digitatum [4]; [9])	Spot Diameter (P. digitatum [4]; [9])	Incidence Rate (P. digitatum [4]; [10])	Spot Diameter (P. digitatum [4]; [10])	Incidence Rate (P. digitatum [4]; [11])	Spot Diameter (P. digitatum [4]; [11])	also measured
CC[C@H](C)[C@H](NC(=O)[C@H](CCCCN)NC(=O)[C@H](CCCCN)NC(=O)[C@H](Cc1ccccc1)NC(=O)[C@H](CC(C)C)NC(=O)[C@H](CCCCN)NC(=O)[C@@H](N)CCCCN)C(=O)N[C@@H](CC(C)C)C(=O)N[C@@H](CCCCN)C(=O)N[C@H](C(=O)N[C@@H](CC(C)C)C(N)=O)C(C)C [BP15]	low hemolysis	6.25 µM (≈ 8.48 µg/mL)	3.12 µM (≈ 4.23 µg/mL)	–	–	–	–	–	–	–	–	–	–	–	–	–	–	–	–	–
CCCCCC(=O)N[C@@H](CCCCN)C(=O)N[C@@H](CCCCN)C(=O)N[C@@H](CC(C)C)C(=O)N[C@@H](Cc1ccccc1)C(=O)N[C@@H](CCCCN)C(=O)N[C@@H](CCCCN)C(=O)N[C@H](C(=O)N[C@@H](CC(C)C)C(=O)N[C@@H](CCCCN)C(=O)N[C@H](C(=O)N[C@@H](CC(C)C)C(N)=O)C(C)C)[C@@H](C)CC [HBP15]	low hemolysis	6.25 µM (≈ 9.09 µg/mL)	3.12 µM (≈ 4.54 µg/mL)	25 µM	extensive continuous green fluorescence	enhanced fluorescence intensity and continuity	no fluorescence	16.31%	1.41 ± 0.80 ^c mm	20.83 ± 7.22 ^c %	4.45 ± 0.80 ^c mm	37.50 ± 0.00 ^c %	9.76 ± 0.84 ^c mm	37.50 ± 0.00 ^c %	14.81 ± 1.19 ^c mm	37.50 ± 0.00 ^c %	19.72 ± 1.95 ^c mm	41.67 ± 7.22 ^b %	23.27 ± 3.61 ^c mm	Incidence Rate (P. digitatum [4]; 5 d, 10 µL of 100 μM peptide + 1 × 10^5 CFU/mL spores (1:1), room temperature, three replicates of eight fruits): 12.50 ± 0.00 ^c %
CCCCCCCCCCCC(=O)N[C@@H](CCCCN)C(=O)N[C@@H](CCCCN)C(=O)N[C@@H](CC(C)C)C(=O)N[C@@H](Cc1ccccc1)C(=O)N[C@@H](CCCCN)C(=O)N[C@@H](CCCCN)C(=O)N[C@H](C(=O)N[C@@H](CC(C)C)C(=O)N[C@@H](CCCCN)C(=O)N[C@H](C(=O)N[C@@H](CC(C)C)C(N)=O)C(C)C)[C@@H](C)CC [LBP15]	low hemolysis	6.25 µM (≈ 9.62 µg/mL)	3.12 µM (≈ 4.8 µg/mL)	50 µM	extensive continuous green fluorescence	enhanced fluorescence intensity and continuity	weak green fluorescence	10.40%	10.80 ± 4.93 ^b mm	70.83 ± 19.09 ^b %	21.23 ± 4.46 ^b mm	80.83 ± 11.54 ^b %	34.00 ± 10.39 ^b mm	80.83 ± 11.54 ^b %	45.60 ± 13.19 ^b mm	80.83 ± 11.54 ^b %	54.08 ± 12.44 ^b mm	87.50% and 87.50 ± 0.00 ^a %	69.6 ± 8.37 ^b mm	inhibitory effect on P. digitatum growth (P. digitatum [1]; at 0.78 and 1.56 μM, 48 h, OD600nm): No obvious inhibitory effect
GHRKKWFW [PAF56, synthetic short cationic antimicrobial peptide (GHRKKWFW), literature comparator]	–	–	–	–	–	–	–	–	–	–	–	–	–	–	–	–	–	–	–	MIC (P. digitatum [5]): 8 µM
